Measurements: patent US20240293405A1, “(1H-PYRROLO[2,3-B]PYRIDIN-1-YL)PYRIMIDIN-2-YL-AMINO-PHENYL-ACRYLAMIDE INHIBITORS OF EGFR FOR USE IN THE TREATMENT OF BRAIN TUMORS” (Dana-Farber Cancer Institute, Inc., priority 2021, published 2024)
Values joined by “and” are separate entries in the source; they are usually repeats but may differ in a detail not shown here. Equal entries are not always repeated. “Also recorded” adds a separate entry of the source. Where two headings read alike, the source gives them in different places.

Experiments:
[1] = target: T1, human BCRP (Homo sapiens, UniProt Q9UNQ0); test: BCRP inhibition (rosuvastatin transport, Caco-2 cells); format: in vitro ADME; conditions: read-out: apparent IC50, rosuvastatin transport via human BCRP (converted)
T1 construct: endogenous in cells; host or cells: Caco-2 cells
Description: Further understanding of DDI risk will await definition of Phase 2 doses and exposures.

[2] = Brain and plasma exposure after 5 hour intravenous infusion; format: in vivo, Sprague Dawley rats; conditions: for Kp at 5 h / concentration at 5 h / concentration at 0.083 h / concentration at 1 h / concentration at 2 h / concentration at 3 h: 3 mg/kg
Description: A single IV infustion for 5 hours was administered to each animal, which were then twice observed clinically (30 minutes to 1 hour post-posing and at the end of the study (TTerminal). Blood samples were collected at 5 time points from each animal over the 5 hour infusion period (5 minutes, 1 hour, 2, hours, 3 hours and TTerminal) and processed to plasma. Brains were collected at Tterminal (blotted, weighed, and snap frozen) and brain exposure was compared. […]

[3] = Comparative plasma protein binding; format: in vitro ADME; conditions: human, monkey, dog, rat, mouse, across species, independent of concentration, read-out: plasma protein bound
Description: Compound 1 was highly protein bound (95.6 to 98.7%) to plasma protein across species. Binding was independent of concentration.

[4] = CNS functional observational battery; format: in vivo; conditions: rat, PO up to 100 mg/kg
[5] = target: PDGFRA (Homo sapiens, UniProt P16234); test: Kinase binding constant (Kd)
Description: (§1) EGFR amplifications and/or mutations are common in GBM, estimated to occur in over 50% of patients.
(§2) Compound 1 and Compound 2 (major metabolite) were evaluated in a panel of 468 human kinases and disease relevant mutant variants. Compound 1 and Compound 2 bound to few non-mutant kinases at <1% of control. […] While there is some variability between Compound 1 and Compound 2, it is clear that both compounds are very effective at binding to a large panel of mutant kinases. […] Binding constant to wild type EGFR was 4.9 nM.

[6] = target: PDGFRB (Homo sapiens, UniProt P09619); test: Kinase binding constant (Kd)
Description: as §1, §2

[7] = target: ALK (Homo sapiens, UniProt Q9UM73); test: Kinase binding constant (Kd)
Description: as §1, §2

[8] = tested on: orthotopic U251-EGFRvIII tumors; test: Orthotopic U251-EGFRvIII xenograft in mice; format: in vivo, mouse
Description: Gefitinib and erlotinib were purchased from Selleck Chemicals. Lapatinib was purchased from MedChemexpress. […] Compound 1 was synthesized by Pharmaron (Wang et al., bioRxiv, 2020.2003.2009.984500). For in vitro studies, compounds were dissolved in DMSO. For in vivo studies, Compound 1 was dissolved in 10% NMP/90% PEG300 and administered by oral gavage at 37.5 mg/kg or 75 mg/kg daily.
Cells (100,000 cells resuspended in 1 μl PBS) were intracranially injected into the right striatum (0 mm anterior, 2 mm lateral, and 2.5 mm ventral to bregma) of 8-10 week-old ICR-SCID mice. Animals were monitored daily for development of neurological defects.
Cells were transduced with lentiviral luciferase (HIV-Luc-zsGreen, addgene #39196). Bioluminescence signals from luciferase-expressing cells in live mice were recorded 10 minutes after intraperitoneal injection of D-luciferin (80 mg/kg) (Gold Biotechnology) with IVIS Lumina III Imaging System (PerkinElmer). The signals were analyzed with Living Image Software (PerkinElmer).
To evaluate the in vivo activity of Compound 1 in GBM with mutant EGFR, U251-EGFRvIII GBM cells expressing luciferase was generated to facilitate monitoring drug response in vivo by bioluminescence-imaging analysis. […]

[9] = tested on: P-gp, Bcrp; test: Efflux liability; format: in vitro ADME; conditions: Compound 1, own data
Description: Data obtained in a previously published report on brain penetration of EGFR TKIs in GMB was compared to brain penetrance data described herein (Table 5). […] Each of these drugs, with the exception of vizimpro, appeared to be a substrate of P-gp and Bcrp (efflux transporter proteins).

[10] = tested on: BT333 cells; test: Cell viability, patient-derived GBM line BT333; conditions: Homo sapiens, 72 h
Description: Primary human glioblastoma lines BT112, BT179 and BT333 were maintained in NeuroCult proliferation medium (human) (StemCell Technologies) with 20 ng/ml EGF, 10 ng/ml FGF and 0.0002% Heparin.
Cells were seeded in 96-well plates at a density of 1,000 cells per well and treated with two-fold serial dilutions of compounds with a starting concentration of 20 μM. Cell viability was assessed after three days of treatment by CellTiter-Glo (Promega). Curve fitting analysis and IC50 value determination were performed using GraphPad Prism 8.

[11] = target: T2, CYP3A4-T (Homo sapiens, UniProt P08684); test: CYP450 inhibition, human liver microsomes; format: in vitro ADME
T2 construct: from tissue; host or cells: human liver microsomes
Description: Metabolism, inhibition and induction were not observed with other CYPs. Potential DDI interactions exist with drugs that are inhibitors of CYP3A4-T or those metabolized by CYP3A4/3A5; these DDI risks will be better defined once there are human pharmacokinetics (PK) data.

[12] = tested on: 468 human kinases and disease relevant mutant variants; test: Kinase selectivity binding panel (468 kinases); conditions: 468 kinase panel, 1 μM free base
Description: as §2

[13] = 3 mg/kg IV infusion over 5 h, 5 h, individual animal, Compound 2 as metabolite in Compound 1-dosed rats
[14] = Sprague Dawley, rat, brain, other: continuous intravenous infusion and oral dosing, rat, estimated steady state by continuous intravenous infusion and oral dosing, read-out: whole brain exposure relative to plasma

T1 sequence (Q9UNQ0 whole entry): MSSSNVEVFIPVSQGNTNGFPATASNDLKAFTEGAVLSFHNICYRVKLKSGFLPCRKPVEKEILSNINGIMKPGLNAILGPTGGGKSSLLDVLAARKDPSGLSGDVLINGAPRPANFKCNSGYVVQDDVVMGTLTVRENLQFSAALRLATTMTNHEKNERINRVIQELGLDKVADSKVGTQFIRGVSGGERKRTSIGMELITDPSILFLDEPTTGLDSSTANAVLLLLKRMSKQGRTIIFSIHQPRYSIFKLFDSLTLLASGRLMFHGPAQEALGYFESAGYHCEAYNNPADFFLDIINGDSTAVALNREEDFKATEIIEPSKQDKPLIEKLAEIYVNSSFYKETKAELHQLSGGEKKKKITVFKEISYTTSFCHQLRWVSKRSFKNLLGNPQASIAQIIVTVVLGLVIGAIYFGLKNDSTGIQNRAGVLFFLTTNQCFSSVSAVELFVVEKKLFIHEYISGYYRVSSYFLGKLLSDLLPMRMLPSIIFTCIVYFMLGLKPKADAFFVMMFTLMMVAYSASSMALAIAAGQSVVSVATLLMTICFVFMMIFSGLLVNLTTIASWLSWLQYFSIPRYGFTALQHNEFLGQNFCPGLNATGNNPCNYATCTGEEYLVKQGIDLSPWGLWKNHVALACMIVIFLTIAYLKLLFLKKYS
T2 sequence (P08684 whole entry): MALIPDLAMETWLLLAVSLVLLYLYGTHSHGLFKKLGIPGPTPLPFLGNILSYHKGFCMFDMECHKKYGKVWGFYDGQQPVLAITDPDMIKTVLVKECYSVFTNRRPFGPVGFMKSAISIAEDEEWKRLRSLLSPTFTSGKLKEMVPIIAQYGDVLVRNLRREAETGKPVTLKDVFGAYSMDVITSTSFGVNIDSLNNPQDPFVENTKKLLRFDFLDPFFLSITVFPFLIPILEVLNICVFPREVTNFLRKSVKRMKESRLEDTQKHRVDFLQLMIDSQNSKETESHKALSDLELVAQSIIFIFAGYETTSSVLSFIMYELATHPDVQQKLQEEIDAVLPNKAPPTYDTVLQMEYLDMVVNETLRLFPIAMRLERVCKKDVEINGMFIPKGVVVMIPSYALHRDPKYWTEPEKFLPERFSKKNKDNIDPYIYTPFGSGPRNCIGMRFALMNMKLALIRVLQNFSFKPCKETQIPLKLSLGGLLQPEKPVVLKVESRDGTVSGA
Chain of PDGFRA (P16234 24-1089): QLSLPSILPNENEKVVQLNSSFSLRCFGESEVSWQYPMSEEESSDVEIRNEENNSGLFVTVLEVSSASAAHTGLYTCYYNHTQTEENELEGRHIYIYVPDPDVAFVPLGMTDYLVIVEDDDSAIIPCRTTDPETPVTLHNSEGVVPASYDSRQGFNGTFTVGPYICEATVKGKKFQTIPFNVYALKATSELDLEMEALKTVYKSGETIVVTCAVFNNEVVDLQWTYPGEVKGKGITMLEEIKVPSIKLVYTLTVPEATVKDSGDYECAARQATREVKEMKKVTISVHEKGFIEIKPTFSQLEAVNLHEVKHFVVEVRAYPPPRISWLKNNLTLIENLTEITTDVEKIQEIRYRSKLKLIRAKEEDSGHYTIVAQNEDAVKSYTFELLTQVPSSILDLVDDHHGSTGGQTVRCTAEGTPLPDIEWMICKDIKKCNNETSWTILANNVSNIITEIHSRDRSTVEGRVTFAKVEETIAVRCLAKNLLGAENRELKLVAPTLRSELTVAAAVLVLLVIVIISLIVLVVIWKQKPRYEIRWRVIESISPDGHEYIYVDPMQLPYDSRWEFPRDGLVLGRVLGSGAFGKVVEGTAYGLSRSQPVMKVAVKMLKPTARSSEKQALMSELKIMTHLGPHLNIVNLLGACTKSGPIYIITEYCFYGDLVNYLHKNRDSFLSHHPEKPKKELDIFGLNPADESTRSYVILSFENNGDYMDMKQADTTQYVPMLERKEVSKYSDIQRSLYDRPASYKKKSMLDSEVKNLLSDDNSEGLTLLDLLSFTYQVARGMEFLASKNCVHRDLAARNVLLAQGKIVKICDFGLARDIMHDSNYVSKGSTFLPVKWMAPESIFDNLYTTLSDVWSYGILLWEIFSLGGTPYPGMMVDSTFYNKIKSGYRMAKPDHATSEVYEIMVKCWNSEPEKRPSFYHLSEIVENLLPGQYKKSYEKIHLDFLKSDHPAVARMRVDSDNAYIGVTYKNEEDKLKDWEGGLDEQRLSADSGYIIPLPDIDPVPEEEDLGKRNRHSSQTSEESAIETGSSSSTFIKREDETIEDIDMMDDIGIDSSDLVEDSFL
Chain of PDGFRB (P09619 33-1106): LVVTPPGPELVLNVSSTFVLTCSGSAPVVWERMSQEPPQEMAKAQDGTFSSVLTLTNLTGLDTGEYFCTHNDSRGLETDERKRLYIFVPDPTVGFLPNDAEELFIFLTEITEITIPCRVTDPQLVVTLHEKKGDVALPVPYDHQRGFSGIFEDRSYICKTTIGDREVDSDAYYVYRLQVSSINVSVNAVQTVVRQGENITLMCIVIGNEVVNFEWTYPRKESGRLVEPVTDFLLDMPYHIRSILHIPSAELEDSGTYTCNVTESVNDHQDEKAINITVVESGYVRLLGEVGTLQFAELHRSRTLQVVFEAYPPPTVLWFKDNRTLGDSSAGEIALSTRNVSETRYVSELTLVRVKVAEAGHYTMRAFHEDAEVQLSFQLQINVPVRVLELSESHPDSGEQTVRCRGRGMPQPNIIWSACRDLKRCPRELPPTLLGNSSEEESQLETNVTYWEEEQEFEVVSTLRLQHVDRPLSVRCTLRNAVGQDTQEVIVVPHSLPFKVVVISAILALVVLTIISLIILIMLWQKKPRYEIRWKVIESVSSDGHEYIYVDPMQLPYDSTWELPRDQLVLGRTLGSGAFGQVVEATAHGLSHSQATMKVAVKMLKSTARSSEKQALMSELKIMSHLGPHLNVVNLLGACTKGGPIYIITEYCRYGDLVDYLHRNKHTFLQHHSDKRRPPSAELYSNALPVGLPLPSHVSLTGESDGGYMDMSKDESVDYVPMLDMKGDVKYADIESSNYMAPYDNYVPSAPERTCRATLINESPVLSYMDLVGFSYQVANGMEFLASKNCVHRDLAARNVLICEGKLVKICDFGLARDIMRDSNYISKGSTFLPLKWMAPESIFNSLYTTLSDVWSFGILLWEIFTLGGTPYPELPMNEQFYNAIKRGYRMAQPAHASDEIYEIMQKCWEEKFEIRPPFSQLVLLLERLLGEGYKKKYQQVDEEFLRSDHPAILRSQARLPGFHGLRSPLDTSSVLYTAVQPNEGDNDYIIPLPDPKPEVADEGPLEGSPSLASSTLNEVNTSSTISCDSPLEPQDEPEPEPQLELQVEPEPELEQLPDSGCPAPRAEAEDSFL
Chain of ALK (Q9UM73 19-1620): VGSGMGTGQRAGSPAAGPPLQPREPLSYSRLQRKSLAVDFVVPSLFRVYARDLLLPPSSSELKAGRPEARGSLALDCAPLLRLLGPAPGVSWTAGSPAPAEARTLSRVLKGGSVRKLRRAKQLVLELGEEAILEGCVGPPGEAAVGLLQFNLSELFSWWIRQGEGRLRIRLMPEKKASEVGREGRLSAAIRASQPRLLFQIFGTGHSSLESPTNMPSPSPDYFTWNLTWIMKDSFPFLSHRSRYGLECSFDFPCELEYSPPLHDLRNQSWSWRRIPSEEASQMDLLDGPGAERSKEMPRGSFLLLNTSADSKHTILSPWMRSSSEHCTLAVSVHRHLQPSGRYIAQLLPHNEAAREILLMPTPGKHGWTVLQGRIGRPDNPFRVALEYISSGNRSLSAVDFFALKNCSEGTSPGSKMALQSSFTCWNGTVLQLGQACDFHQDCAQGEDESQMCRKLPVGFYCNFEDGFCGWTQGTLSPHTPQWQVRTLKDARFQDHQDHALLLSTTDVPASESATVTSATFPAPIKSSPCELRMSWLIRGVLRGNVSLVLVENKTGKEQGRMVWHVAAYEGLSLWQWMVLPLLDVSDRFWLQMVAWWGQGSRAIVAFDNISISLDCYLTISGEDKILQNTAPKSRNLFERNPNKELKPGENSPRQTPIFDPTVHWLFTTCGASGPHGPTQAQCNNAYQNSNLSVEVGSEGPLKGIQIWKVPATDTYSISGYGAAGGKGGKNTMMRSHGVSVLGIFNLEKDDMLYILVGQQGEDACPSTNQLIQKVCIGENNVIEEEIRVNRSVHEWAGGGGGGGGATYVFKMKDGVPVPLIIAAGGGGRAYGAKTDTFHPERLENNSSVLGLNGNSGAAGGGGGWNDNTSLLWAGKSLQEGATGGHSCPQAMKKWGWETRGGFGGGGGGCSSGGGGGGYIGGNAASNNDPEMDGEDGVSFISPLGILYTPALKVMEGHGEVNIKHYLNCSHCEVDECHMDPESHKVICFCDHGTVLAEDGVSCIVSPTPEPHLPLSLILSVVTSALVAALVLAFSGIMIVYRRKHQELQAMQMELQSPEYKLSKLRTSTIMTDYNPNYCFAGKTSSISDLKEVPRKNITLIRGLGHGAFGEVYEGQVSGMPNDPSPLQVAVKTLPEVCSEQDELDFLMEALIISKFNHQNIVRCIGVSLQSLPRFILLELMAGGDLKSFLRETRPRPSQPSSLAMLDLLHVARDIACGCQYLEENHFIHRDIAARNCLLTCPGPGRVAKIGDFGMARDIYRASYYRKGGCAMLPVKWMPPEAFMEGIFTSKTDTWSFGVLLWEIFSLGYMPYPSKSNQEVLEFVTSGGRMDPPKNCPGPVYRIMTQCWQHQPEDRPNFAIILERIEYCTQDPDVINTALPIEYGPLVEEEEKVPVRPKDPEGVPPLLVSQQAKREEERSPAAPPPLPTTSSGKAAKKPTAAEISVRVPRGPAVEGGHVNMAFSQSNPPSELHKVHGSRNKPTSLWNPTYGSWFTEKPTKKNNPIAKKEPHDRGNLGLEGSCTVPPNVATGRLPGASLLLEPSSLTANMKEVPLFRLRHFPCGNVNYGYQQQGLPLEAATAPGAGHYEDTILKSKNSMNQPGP

Q: Which IC50 [1] does the source give for `C=CC(=O)Nc1cc(Nc2nccc(-n3ccc4cccnc43)n2)c(OC)cc1N(C)CCN(C)C` [Compound 1, N-(5-((4-(1H-pyrrolo[2,3-b]pyridin-1-yl)pyrimidin-2-yl)amino)-2-((2-(dimethylamino)ethyl)(methyl)amino)-4-methoxyphenyl)acrylamide] here?
A: 3.02 µM

Q: And the “Plasma Concentration” value ([2]; 3 mg/kg IV infusion over 5 h, 0.083 h, individual animal, Compound 2 as metabolite in Compound 1-dosed rats)?
A: 14.2 ng/mL and 13.5 ng/mL and 12.8 ng/mL and 13.1 ng/mL and 11.3 ng/mL and 14.3 ng/mL

Q: What about the “Plasma Concentration” value ([2]; 3 mg/kg IV infusion over 5 h, 1 h, individual animal, Compound 2 as metabolite in Compound 1-dosed rats) of the same molecule?
A: 63.5 ng/mL and 54.8 ng/mL and 59.6 ng/mL and 44.2 ng/mL and 51.1 ng/mL and 63.0 ng/mL

Q: What about the “Plasma Concentration” value ([2]; 3 mg/kg IV infusion over 5 h, 2 h, individual animal, Compound 2 as metabolite in Compound 1-dosed rats) of the same molecule?
A: 93.4 ng/mL and 84.2 ng/mL and 81.6 ng/mL and 70.7 ng/mL and 71.9 ng/mL and 70.1 ng/mL

Q: And the “Plasma Concentration” value ([2]; 3 mg/kg IV infusion over 5 h, 3 h, individual animal, Compound 2 as metabolite in Compound 1-dosed rats)?
A: 95.5 ng/mL and 93.7 ng/mL and 106 ng/mL and 89.5 ng/mL and 94.7 ng/mL and 120 ng/mL

Q: What about the “Brain Tissue Concentration” value [2, 13] of the same molecule?
A: 2380 ng/g and 2400 ng/g and 2020 ng/g and 2000 ng/g and 1980 ng/g and 2640 ng/g

Q: And the “Brain/Plasma (ratios)” value [2, 13]?
A: 18.5 and 20.5 and 18.2

Q: And the “Plasma Concentration” value [2, 13]?
A: 107 ng/mL and 120 ng/mL and 109 ng/mL and 97.4 ng/mL and 119 ng/mL

Q: What about the Kp at 5 h [2, 14] of the same molecule?
A: > 20

Q: And the Kp [2, 14]?
A: 20

Q: And the concentration at 5 h ([2]; male, Sprague Dawley, rat, brain, intravenous, 3 mg/kg IV infusion over 5 h, 5 h, individual animal, Compound 2 as metabolite in Compound 1-dosed rats, read-out: Brain Tissue Concentration)?
A: 2640 ng/g

Q: What about the concentration at 5 h ([2]; male, Sprague Dawley, rat, brain, intravenous, 3 mg/kg IV infusion over 5 h, 5 h, mean n=6, Compound 2 as metabolite, read-out: Brain Tissue Concentration) of the same molecule?
A: 2240 ng/g

Q: And the Kp at 5 h ([2]; male, Sprague Dawley, rat, brain, intravenous, rats with continuous infusion, read-out: brain/plasma ratio)?
A: ~20

Q: And the Kp at 5 h ([2]; male, Sprague Dawley, rat, brain, iv, 3 mg/kg IV infusion over 5 h, 5 h, individual animal, Compound 2 as metabolite in Compound 1-dosed rats, read-out: Brain/Plasma (ratios))?
A: 22.2

Q: And the Kp at 5 h ([2]; male, Sprague Dawley, rat, brain, iv, 3 mg/kg IV infusion over 5 h, 5 h, mean n=6, Compound 2 as metabolite, read-out: Brain/Plasma (ratios))?
A: 20.3

Q: And the concentration at 0.083 h ([2]; male, Sprague Dawley, rat, plasma, intravenous, 3 mg/kg IV infusion over 5 h, 0.083 h, individual animal, Compound 2 as metabolite in Compound 1-dosed rats)?
A: 14.3 ng/mL

Q: And the concentration at 0.083 h ([2]; male, Sprague Dawley, rat, plasma, intravenous, 3 mg/kg IV infusion over 5 h, 0.083 h, mean n=6, Compound 2 as metabolite)?
A: 13.2 ng/mL

Q: What about the concentration at 1 h ([2]; male, Sprague Dawley, rat, plasma, intravenous, 3 mg/kg IV infusion over 5 h, 1 h, individual animal, Compound 2 as metabolite in Compound 1-dosed rats) of the same molecule?
A: 63 ng/mL

Q: And the concentration at 1 h ([2]; male, Sprague Dawley, rat, plasma, intravenous, 3 mg/kg IV infusion over 5 h, 1 h, mean n=6, Compound 2 as metabolite)?
A: 56 ng/mL

Q: What about the concentration at 2 h ([2]; male, Sprague Dawley, rat, plasma, intravenous, 3 mg/kg IV infusion over 5 h, 2 h, individual animal, Compound 2 as metabolite in Compound 1-dosed rats) of the same molecule?
A: 70.1 ng/mL

Q: And the concentration at 2 h ([2]; male, Sprague Dawley, rat, plasma, intravenous, 3 mg/kg IV infusion over 5 h, 2 h, mean n=6, Compound 2 as metabolite)?
A: 78.7 ng/mL

Q: What about the concentration at 3 h ([2]; male, Sprague Dawley, rat, plasma, intravenous, 3 mg/kg IV infusion over 5 h, 3 h, individual animal, Compound 2 as metabolite in Compound 1-dosed rats) of the same molecule?
A: 120 ng/mL

Q: And the concentration at 3 h ([2]; male, Sprague Dawley, rat, plasma, intravenous, 3 mg/kg IV infusion over 5 h, 3 h, mean n=6, Compound 2 as metabolite)?
A: 99.9 ng/mL

Q: What about the concentration at 5 h ([2]; male, Sprague Dawley, rat, plasma, intravenous, 3 mg/kg IV infusion over 5 h, 5 h, individual animal, Compound 2 as metabolite in Compound 1-dosed rats, read-out: Plasma Concentration) of the same molecule?
A: 119 ng/mL

Q: What about the concentration at 5 h ([2]; male, Sprague Dawley, rat, plasma, intravenous, 3 mg/kg IV infusion over 5 h, 5 h, mean n=6, Compound 2 as metabolite, read-out: Plasma Concentration) of the same molecule?
A: 110 ng/mL

Q: What about the “Brain Penetration (% of B/P ratio in preclinical model)” value ([2]; own data, infusion in rats) of the same molecule?
A: 2000% (infusion)

Q: And the fraction unbound [3]?
A: 0.013 to 0.044

Q: What about the “CNS effects in functional observational battery” value [4] of the same molecule?
A: no adverse CNS effects

Q: And the Kd [5]?
A: 1.5 µM

Q: And the Kd [6]?
A: 5.2 µM

Q: What about the Kd [7] of the same molecule?
A: 0.25 µM

Q: What about the “body weight during treatment” value ([8]; 37.5 and 75 mg/kg PO QD) of the same molecule?
A: stable body weight; also recorded: no significant body weight loss

Q: What about the “luminescence signals of tumors” value ([8]; 37.5 and 75 mg/kg, dose-dependent) of the same molecule?
A: reduced the luminescence signals

Q: What about the “Efflux Liability” value [9] of the same molecule?
A: Not a substrate

Q: And the IC50 [10]?
A: 3.28 µM

Q: What about the IC50 [11] of the same molecule?
A: 4.89 µM

Q: And the “targeted non-mutant kinases (bound at <1% of control)” value [12]?
A: MAST1, PAK4, PDGFRB and ULK3
